Values joined by “and” are separate entries in the source; they are usually repeats but may differ in a detail not shown here. Identical values can stand only once. Like-named read-outs stand apart in the source and are kept apart here.
Assays:
[1] = molecular target: T1, Agg-1 (Homo sapiens, UniProt O75173); assay: Agg-1 FRET assay; format: biochemical; details: for inhibition at 50 µM: @ 50000 nM; for inhibition at 0.8 µM: @ 800 nM; for inhibition at 22.2 µM: @ 22200 nM
T1 sequence (O75173 213-837): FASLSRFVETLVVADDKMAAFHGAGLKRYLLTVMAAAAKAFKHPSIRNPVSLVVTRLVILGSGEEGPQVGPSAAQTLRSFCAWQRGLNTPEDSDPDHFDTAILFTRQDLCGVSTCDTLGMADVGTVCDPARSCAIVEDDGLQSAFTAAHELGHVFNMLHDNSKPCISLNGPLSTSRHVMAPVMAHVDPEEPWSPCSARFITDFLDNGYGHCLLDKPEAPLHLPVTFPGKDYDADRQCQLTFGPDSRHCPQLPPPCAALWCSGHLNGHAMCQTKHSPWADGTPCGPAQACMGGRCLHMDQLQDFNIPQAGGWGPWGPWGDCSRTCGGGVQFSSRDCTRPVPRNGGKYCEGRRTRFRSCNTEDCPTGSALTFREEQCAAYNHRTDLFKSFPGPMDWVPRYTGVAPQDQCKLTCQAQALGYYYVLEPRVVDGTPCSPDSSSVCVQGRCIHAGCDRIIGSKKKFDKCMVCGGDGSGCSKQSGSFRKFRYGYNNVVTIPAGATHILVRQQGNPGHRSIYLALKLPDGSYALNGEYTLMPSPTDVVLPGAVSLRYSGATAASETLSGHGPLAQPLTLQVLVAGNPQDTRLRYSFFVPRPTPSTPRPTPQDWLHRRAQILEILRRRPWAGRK
Text: The Agg-1/Agg-2 FRET data for N-[(8-hydroxyquinolin-2-yl)(phenyl)methyl]-2-phenoxyacetamide and 2-{[(phenoxyacetyl)amino](phenyl)methyl}quinolin-8-yl phenoxyacetate is presented in Table 1.

[2] = molecular target: T2, recombinant human Aggrecanase-2 Agg2-Phe628 (Homo sapiens, UniProt Q9UNA0); assay: Aggrecanase 2 in vitro enzyme assay (Agg-2 FRET, quenched fluorescent peptide substrate); format: biochemical; parameters: purified recombinant human Aggrecanase-2 Agg2-Phe628 (MW=41,737); This is a truncated form of full-length human aggrecanase-2; made in house; host or cells: CHO cells; details: for Agg-2 FRET Median PCT INHIB: concentration not given; for inhibition at 3.7 µM: @ 3700 nM
T2 sequence (Q9UNA0 262-628 limits assumed): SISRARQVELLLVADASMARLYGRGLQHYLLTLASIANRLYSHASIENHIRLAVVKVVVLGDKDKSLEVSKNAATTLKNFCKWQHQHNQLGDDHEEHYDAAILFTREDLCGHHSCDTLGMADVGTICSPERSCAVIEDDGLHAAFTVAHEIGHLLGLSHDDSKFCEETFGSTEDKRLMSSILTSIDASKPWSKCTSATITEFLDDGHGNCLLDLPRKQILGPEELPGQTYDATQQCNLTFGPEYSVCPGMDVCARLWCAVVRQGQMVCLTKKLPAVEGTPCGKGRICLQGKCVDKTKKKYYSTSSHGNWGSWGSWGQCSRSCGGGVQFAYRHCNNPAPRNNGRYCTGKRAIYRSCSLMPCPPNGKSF
In short: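 Kinetic fluorescence (λex 340, λem 420 nm) monitored over 40 min at 30 °C after adding 25 μM final Abz/Dnp brevican-based quenched peptide. Enzyme: recombinant truncated human Agg2-Phe628 from CHO, 0.5 μg/ml final, mixed with inhibitor first; buffer HEPES pH 7.5 with NaCl, CaCl2, CHAPS, glycerol; compounds in duplicate.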

[3] = read-out: Agg-2 FRET Median IC50
[4] = read-out: Agg-2 IC50 (μM) or % Inhibition

## O=C(Cc1ccccc1)NC(c1ccccc1Cl)c1cc(Cl)c2cccnc2c1O (centres unmarked) [N-[(5-chloro-8-hydroxyquinolin-7-yl)(2-chlorophenyl)methyl]-2-phenylacetamide]
[1]; @ 1200 nM, read-out: Agg1 %
  inhibition at […]: 29%
[2]; read-out: Agg2 IC50
  IC50: 1.54 µM
[2]; [3]
  IC50: 1.54 µM

## CN(C)c1cc(C(NC(=O)COc2ccccc2)c2ccccc2)c(O)c2ncccc12 (centres unmarked) [N-[[5-(dimethylamino)-8-hydroxyquinolin-7-yl](phenyl)methyl]-2-phenoxyacetamide]
[1]; read-out: Agg1 IC50
  IC50: ~25 µM
[2]
  Agg-2 FRET Median PCT INHIB: 58%
[2]; read-out: Agg2 IC50
  IC50: 33.3 to 100 µM

## CC(C)c1ccc(OCC(=O)NC(c2ccccc2Cl)c2cc(Cl)c3cccnc3c2O)cc1 (centres unmarked) [N-[(5-chloro-8-hydroxyquinolin-7-yl)(2-chlorophenyl)methyl]-2-(4-isopropylphenoxy)acetamide]
[1]; read-out: Agg1 %
  inhibition at 50 µM: 56%
[2]; read-out: Agg2 IC50
  IC50: 1.4 µM

## CCC/C=C/C(NC(=O)COc1ccccc1)c1cc(Cl)c2cccnc2c1O (centres unmarked) [N-[(2E)-1-(5-chloro-8-hydroxyquinolin-7-yl)hex-2-en-1-yl]-2-phenoxyacetamide]
[1]; read-out: Agg1 %
  inhibition at 0.8 µM: 30%
[2]; @ 2500 nM
  inhibition at […]: 47%

## O=C(COc1ccccc1)NC(c1cccc([N+](=O)[O-])c1)c1cc(Cl)c2cccnc2c1O (centres unmarked) [N-[(5-chloro-8-hydroxyquinolin-7-yl)(3-nitrophenyl)methyl]-2-phenoxyacetamide]
[1]; @ 22000 nM, read-out: Agg1 %
  inhibition at 22 µM: 53%
[2]; read-out: Agg2 IC50
  IC50: 1.23 µM
[2]; [3]
  IC50: 1.23 µM and 0.488 µM

## O=C(CNCc1ccc(-c2ccccc2)cc1)NC(c1ccccc1)c1cc(Cl)c2cccnc2c1O (centres unmarked) [Example 230, N^2-(biphenyl-4-ylmethyl)-N-[(5-chloro-8-hydroxyquinolin-7-yl)(phenyl)methyl]glycinamide]
[1]; read-out: Agg1 IC50
  IC50: > 20 µM
[2]; read-out: Agg2 IC50
  IC50: 1.29 µM

## O=C(NC(c1ccccc1Cl)c1cc(Cl)c2cccnc2c1O)OCc1ccccc1 (centres unmarked) [benzyl [(5-chloro-8-hydroxyquinolin-7-yl)(2-chlorophenyl)methyl]carbamate]
[1]; read-out: Agg1 IC50
  IC50: > 67 µM
[2]
  Agg-2 FRET Median PCT INHIB: 56%
[2]; read-out: Agg2 IC50
  IC50: ~2.5 µM

## Cc1ccc(-c2cccc(C(Cc3cc(Cl)c4cccnc4c3O)NC(=O)COc3ccc(C(C)(C)C)cc3)c2)s1 (centres unmarked)
[1]; read-out: Agg-1 IC50 (μM) or % Inhibition
  inhibition at 22 µM: 46%
[2]; [4]
  inhibition at 200 µM: 56%

## O=C(COc1ccccc1)NC(C1=CCCCC1)c1cc(Cl)c2cccnc2c1O (centres unmarked) [N-[(5-chloro-8-hydroxyquinolin-7-yl)(cyclohex-1-en-1-yl)methyl]-2-phenoxyacetamide]
[1]; read-out: Agg1 IC50
  IC50: 1 to 8 µM
[2]; @ 1900 nM
  inhibition at […]: 42%

## O=C(COc1ccccc1)NC(c1cccc(OCc2ccccc2)c1)c1cc(Cl)c2cccnc2c1O (centres unmarked) [N-[[3-(benzyloxy)phenyl](5-chloro-8-hydroxyquinolin-7-yl)methyl]-2-phenoxyacetamide]
[1]; read-out: Agg1 %
  inhibition at 22.2 µM: 47%
[2]
  inhibition at 3.7 µM: 48%

## CC(C)(Oc1ccc(Cl)cc1)C(=O)NC(Cc1cc(Cl)c2cccnc2c1O)c1cccc(CN2CCCC2)c1 (centres unmarked)
[1]; % inhibition @ 66.7 μM, read-out: Agg-1 IC50 (μM) or % Inhibition
  inhibition at 66.7 µM: 50%
[2]; [4]
  inhibition at 22 µM: 49%

## O=C(COc1ccccc1)NC(c1cc2ccccc2o1)c1cc(Cl)c2cccnc2c1O (centres unmarked) [Example 168, N-[1-benzofuran-2-yl(5-chloro-8-hydroxyquinolin-7-yl)methyl]-2-phenoxyacetamide]
[1]; @ 66700 nM, read-out: Agg1 %
  inhibition at 66.7 µM: 49%
[2]; read-out: Agg2 IC50
  IC50: 0.4 to 1.2 µM

## O=C(COc1ccccc1)N[C@H](c1ccccc1Cl)c1cc(Cl)c2cccnc2c1O [N-[(S)-(5-chloro-8-hydroxyquinolin-7-yl)(2-chlorophenyl)methyl]-2-phenoxyacetamide]
[1]; read-out: Agg1 %
  inhibition at 22.2 µM: 54%
[2]; read-out: Agg2 IC50
  IC50: 0.876 µM
[2]; [3]
  IC50: 0.876 µM and 1.34 µM

## CCCCC#Cc1ccc(C(NC(=O)COc2ccccc2)c2cc(Cl)c3cccnc3c2O)cc1 (centres unmarked) [N-[(5-chloro-8-hydroxyquinolin-7-yl)(4-hex-1-yn-1-ylphenyl)methyl]-2-phenoxyacetamide]
[1]; read-out: Agg1 %
  inhibition at 50 µM: 47%
[2]; @ 33300 nM
  inhibition at 33.3 µM: 48%

## O=C(COc1ccccc1)NC(c1ccc2c(c1)CCO2)c1cc(Cl)c2cccnc2c1O (centres unmarked) [Example 170, N-[(5-chloro-8-hydroxyquinolin-7-yl)(2,3-dihydro-1-benzofuran-5-yl)methyl]-2-phenoxyacetamide]
[1]; @ 7400 nM, read-out: Agg1 %
  inhibition at 7.4 µM: 43%
[2]; read-out: Agg2 IC50
  IC50: 2.4 µM

## O=C(COc1ccccc1)NC(c1cc(Cl)c2cccnc2c1O)c1cccc2ncccc12 (centres unmarked) [N-[(5-chloro-8-hydroxyquinolin-7-yl)(quinolin-5-yl)methyl]-2-phenoxyacetamide]
[1]; @ 22000 nM, read-out: Agg1 %
  inhibition at 22 µM: 46%
[2]; read-out: Agg2 IC50
  IC50: 3.5 µM
[2]; [3]
  IC50: 3.52 µM

## O=C(COc1ccccc1)NC(c1ccc(OCc2ccccc2)cc1)c1cc(Cl)c2cccnc2c1O (centres unmarked) [N-[[4-(benzyloxy)phenyl](5-chloro-8-hydroxyquinolin-7-yl)methyl]-2-phenoxyacetamide]
[1]; read-out: Agg1 IC50
  IC50: > 67 µM
[2]; read-out: Agg2 IC50
  IC50: 4.4 µM

## Nc1cc(C(NC(=O)COc2ccccc2)c2ccccc2)c(O)c2ncccc12 (centres unmarked) [N-[(5-amino-8-hydroxyquinolin-7-yl)(phenyl)methyl]-2-phenoxyacetamide]
[1]; read-out: Agg1 %
  inhibition at 22.2 µM: 57%
[2]; @ 22200 nM
  inhibition at 22.2 µM: 50%

## O=C(COc1ccccc1)NC(c1cc2n(n1)CCC2)c1cc(Cl)c2cccnc2c1O (centres unmarked) [Example 179, N-[(5-chloro-8-hydroxyquinolin-7-yl)(5,6-dihydro-4H-pyrrolo[1,2-b]pyrazol-2-yl)methyl]-2-phenoxyacetamide]
[1]; read-out: Agg1 IC50
  IC50: > 20 µM
[2]; read-out: Agg2 IC50
  IC50: ~2.5 µM

## Cn1c(C(NC(=O)COc2ccccc2)c2cc(Cl)c3cccnc3c2O)cc2ccccc21 (centres unmarked) [N-[(5-chloro-8-hydroxyquinolin-7-yl)(1-methyl-1H-indol-2-yl)methyl]-2-phenoxyacetamide]
[1]; @ 11000 nM, read-out: Agg1 %
  inhibition at 11 µM: 48%
[2]; @ 2500 nM
  inhibition at […]: 57%

## O=C(CNCc1ccc2c(c1)OCO2)NC(c1ccccc1)c1cc(Cl)c2cccnc2c1O (centres unmarked) [Example 226, N^2-(1,3-benzodioxol-5-ylmethyl)-N-[(5-chloro-8-hydroxyquinolin-7-yl)(phenyl)methyl]glycinamide]
[1]; read-out: Agg1 IC50
  IC50: > 11 µM
[2]; read-out: Agg2 IC50
  IC50: 2.75 µM
[2]; [3]
  IC50: 2.75 µM

## C=CC(NC(=O)COc1ccccc1)c1cc(Cl)c2cccnc2c1O (centres unmarked) [Example 186, N-[1-(5-chloro-8-hydroxyquinolin-7-yl)prop-2-en-1-yl]-2-phenoxyacetamide]
[1]; read-out: Agg1 %
  inhibition at 0.8 µM: 50%
[2]
  inhibition at 3.7 µM: 38%

## O=C(COc1ccccc1)NC(c1ccccc1)c1cc(Cl)c2ccccc2c1O (centres unmarked) [N-[(4-chloro-1-hydroxy-2-naphthyl)(phenyl)methyl]-2-phenoxyacetamide]
[1]; read-out: Agg1 IC50
  IC50: > 22 µM
[2]
  Agg-2 FRET Median PCT INHIB: 31%
[2]; read-out: Agg2 IC50
  IC50: > 67 µM

## CC(=O)Nc1cccc(C(NC(=O)COc2ccccc2)c2cc(Cl)c3cccnc3c2O)c1 (centres unmarked) [Example 204, N-[[3-(acetylamino)phenyl](5-chloro-8-hydroxyquinolin-7-yl)methyl]-2-phenoxyacetamide]
[1]; read-out: Agg1 IC50
  IC50: > 20 µM
[2]; read-out: Agg2 IC50
  IC50: 3.76 µM
[2]; [3]
  IC50: 3.76 µM

## O=C(NC(Cc1cc(Cl)c2cccnc2c1O)c1cccc(CN2CCCC2)c1)c1ccc(-c2ccccc2)cc1 (centres unmarked) [drawing 58]
[1]; IC50, read-out: Agg-1 IC50 (μM) or % Inhibition
  IC50: 5.9 µM
[2]; IC50, read-out: Agg-2 IC50 (μM) or % Inhibition
  IC50: 3.4 µM

## CCOC(=O)Cc1cccc(C(NC(=O)COc2ccccc2)c2cc(Cl)c3cccnc3c2O)c1 (centres unmarked) [Example 127, ethyl(3-{(5-chloro-8-hydroxyquinolin-7-yl)[(phenoxyacetyl)amino]methyl}phenyl)acetate]
[1]; @ 22000 nM, read-out: Agg1 %
  inhibition at 22 µM: 41%
[2]; @ 33000 nM
  inhibition at 33 µM: 50%
[2]; [3]
  IC50: 1.45 µM

## O=C(O)Cc1cccc(C(NC(=O)COc2ccccc2)c2cc(Cl)c3cccnc3c2O)c1 (centres unmarked) [Example 208, (3-{(5-chloro-8-hydroxyquinolin-7-yl)[(phenoxyacetyl)amino]methyl}phenyl)acetic acid]
[1]; @ 2500 nM, read-out: Agg1 %
  inhibition at […]: 37%
[2]; read-out: Agg2 IC50
  IC50: 4.48 µM
[2]; [3]
  IC50: 4.48 µM
